Patent US7582649B2, “Hydroxy alkyl substituted 1,3,8-triazaspiro[4.5]decan-4-one derivatives useful for the treatment of ORL-1 receptor mediated disorders” (Janssen Pharmaceutica, NV, priority 2002, dated 2009)
Like-named read-outs stand apart in the source and are kept apart here.

Tests used:
D2 receptor = D2 receptor (Homo sapiens, UniProt P14416); test: Filtration binding assay, dopamine (Spiperone-I125)
kappa opioid receptor = kappa opioid receptor (Homo sapiens, UniProt P41145); test: Filtration binding assay: kappa opioid receptor
Long-Evans Hooded rats [1] = settings: rat, in vivo; for Total Entries (EPM), % Change / Total Entries (EPM), Mean / reduction of total number of entries into various zones of the maze: male, Long-Evans Hooded; for Total Entries (EPM), % Change / Total Entries (EPM), Mean / reduction of total number of entries into various zones of the maze / % Open Arm Entries (EPM), % Change / % Open Arm Entries (EPM), Mean / % Open Arm Time (EPM), % Change / % Open Arm Time (EPM), Mean / percent open arm entries, increase as compared to vehicle: po
Long-Evans Hooded rats [2] = settings: male, rat, in vivo, po
mu opioid receptor = mu opioid receptor (Homo sapiens, UniProt P35372); test: Filtration binding assay: mu opioid receptor
delta opioid receptor = delta opioid receptor (Homo sapiens, UniProt P41143); test: Filtration binding assay: delta opioid receptor
[3] = D2 receptor, Spiperone-I125, read-out: IC50

D2 receptor, sequence (P14416 whole entry): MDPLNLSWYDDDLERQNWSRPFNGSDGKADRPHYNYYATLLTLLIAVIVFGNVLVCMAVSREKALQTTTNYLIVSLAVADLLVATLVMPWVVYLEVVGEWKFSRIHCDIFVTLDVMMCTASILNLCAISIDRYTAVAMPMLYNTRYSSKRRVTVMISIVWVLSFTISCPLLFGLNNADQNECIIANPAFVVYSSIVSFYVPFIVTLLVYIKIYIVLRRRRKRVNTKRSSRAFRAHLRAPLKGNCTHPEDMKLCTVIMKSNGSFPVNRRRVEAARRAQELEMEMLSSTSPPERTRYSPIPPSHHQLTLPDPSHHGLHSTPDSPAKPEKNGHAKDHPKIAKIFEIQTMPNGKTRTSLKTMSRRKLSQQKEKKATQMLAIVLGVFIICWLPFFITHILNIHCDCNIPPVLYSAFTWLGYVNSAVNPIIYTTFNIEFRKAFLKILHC
kappa opioid receptor, sequence (P41145 whole entry): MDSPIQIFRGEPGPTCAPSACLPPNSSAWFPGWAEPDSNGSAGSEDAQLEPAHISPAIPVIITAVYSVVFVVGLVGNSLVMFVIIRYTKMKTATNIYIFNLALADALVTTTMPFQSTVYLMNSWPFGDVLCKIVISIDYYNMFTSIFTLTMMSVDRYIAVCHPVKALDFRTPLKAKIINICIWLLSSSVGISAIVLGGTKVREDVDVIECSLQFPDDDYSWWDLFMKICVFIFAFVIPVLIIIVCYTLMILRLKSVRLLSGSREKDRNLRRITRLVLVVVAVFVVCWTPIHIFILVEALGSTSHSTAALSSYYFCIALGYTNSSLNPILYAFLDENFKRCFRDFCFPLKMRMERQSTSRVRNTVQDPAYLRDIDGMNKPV
mu opioid receptor, sequence (P35372 whole entry): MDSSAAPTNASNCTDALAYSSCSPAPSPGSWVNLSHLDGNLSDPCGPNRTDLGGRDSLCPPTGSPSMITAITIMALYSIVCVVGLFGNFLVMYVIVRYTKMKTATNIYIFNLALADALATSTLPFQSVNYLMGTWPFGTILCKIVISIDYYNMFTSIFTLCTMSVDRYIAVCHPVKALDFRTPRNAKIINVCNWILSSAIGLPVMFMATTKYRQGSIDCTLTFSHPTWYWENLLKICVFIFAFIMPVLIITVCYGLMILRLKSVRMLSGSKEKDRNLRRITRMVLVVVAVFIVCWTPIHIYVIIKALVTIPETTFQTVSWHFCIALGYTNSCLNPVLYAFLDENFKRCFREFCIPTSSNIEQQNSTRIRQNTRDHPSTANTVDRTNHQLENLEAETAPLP
delta opioid receptor, sequence (P41143 whole entry): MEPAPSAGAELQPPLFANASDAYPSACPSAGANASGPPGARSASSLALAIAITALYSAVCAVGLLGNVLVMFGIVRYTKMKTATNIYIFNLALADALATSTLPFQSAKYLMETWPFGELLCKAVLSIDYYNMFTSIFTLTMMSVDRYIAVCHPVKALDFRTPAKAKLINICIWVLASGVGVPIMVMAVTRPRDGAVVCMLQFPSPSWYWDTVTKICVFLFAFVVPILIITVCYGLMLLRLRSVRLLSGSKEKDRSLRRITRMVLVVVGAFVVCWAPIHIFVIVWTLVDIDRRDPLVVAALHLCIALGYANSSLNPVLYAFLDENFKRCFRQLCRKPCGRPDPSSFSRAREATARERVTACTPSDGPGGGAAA

Question: How did the IC50 (D2 receptor) turn out when `O=C1N(C[C@@H](O)CNc2ccncc2)CN(c2ccc(F)cc2)C12CCN(C1Cc3cccc4cccc1c34)CC2` (some centres unmarked) [Compound #327, 8-Acenaphthen-1-yl-1-(4-fluoro-phenyl)-3-[2-hydroxy-3-(pyridin-4-ylamino)-propyl]-1,3,8-triaza-spiro[4.5]decan-4-one] was run?
Answer: 387 nM

Question: With `NC[C@H](O)CN1CN(c2ccc(F)cc2)C2(CCN([C@@H]3Cc4cccc5cccc3c45)CC2)C1=O` [Compound #424, (R)-8-Acenaphthen-1-yl-3-(3-amino-2-hydroxy-(S)-propyl)-1-(4-fluoro-phenyl)-1,3,8-triaza-spiro[4.5]decan-4-one] as the compound, how does the IC50 (kappa opioid receptor) read?
Answer: 600 nM

Question: What about the IC50 (D2 receptor; [3]) of the same compound?
Answer: 278 nM

Question: And the “Total Entries (EPM), % Change” value (Long-Evans Hooded rats [1]; 0.3 mg/kg)?
Answer: −6.9%

Question: And the “Total Entries (EPM), Mean” value (Long-Evans Hooded rats [1]; 0.3 mg/kg)?
Answer: 90.0

Question: What about the “Total Entries (EPM), % Change” value (Long-Evans Hooded rats [1]; 1 mg/kg) of the same compound?
Answer: −5.3%

Question: And the “Total Entries (EPM), Mean” value (Long-Evans Hooded rats [1]; 1 mg/kg)?
Answer: 91.5

Question: And the “reduction of total number of entries into various zones of the maze” value (shortened to “reduction of total number … of the maze”) (Long-Evans Hooded rats [1]; 1 mg/kg)?
Answer: 18.6%

Question: What about the “Total Entries (EPM), % Change” value (Long-Evans Hooded rats [1]; 3 mg/kg) of the same compound?
Answer: −0.4%

Question: And the “Total Entries (EPM), Mean” value (Long-Evans Hooded rats [1]; 3 mg/kg)?
Answer: 96.3

Question: And the “reduction of total number … of the maze” value (Long-Evans Hooded rats [1]; 3 mg/kg)?
Answer: 60.3%

Question: What about the “Total Entries (EPM), % Change” value (Long-Evans Hooded rats [1]; 10 mg/kg) of the same compound?
Answer: 6.1%

Question: What about the “Total Entries (EPM), Mean” value (Long-Evans Hooded rats [1]; 10 mg/kg) of the same compound?
Answer: 102.6

Question: And the “reduction of total number … of the maze” value (Long-Evans Hooded rats [1]; 10 mg/kg)?
Answer: 76.7%

Question: And the “percent open arm entries” value (Long-Evans Hooded rats [1])?
Answer: significant increases

Question: And the “percent open arm time” value (Long-Evans Hooded rats [1])?
Answer: significant increases

Question: And the “percent open arm time, increase as compared to vehicle” value (Long-Evans Hooded rats [1])?
Answer: 97.5%

Question: And the “% Open Arm Entries (EPM), % Change” value (Long-Evans Hooded rats [1]; 0.3 mg/kg)?
Answer: 33.8%

Question: What about the “% Open Arm Entries (EPM), Mean” value (Long-Evans Hooded rats [1]; 0.3 mg/kg) of the same compound?
Answer: 7.33%

Question: And the “% Open Arm Time (EPM), % Change” value (Long-Evans Hooded rats [1]; 0.3 mg/kg)?
Answer: 70.1%

Question: And the “% Open Arm Time (EPM), Mean” value (Long-Evans Hooded rats [1]; 0.3 mg/kg)?
Answer: 9.80%

Question: What about the “% Open Arm Entries (EPM), % Change” value (Long-Evans Hooded rats [1]; 1 mg/kg) of the same compound?
Answer: 36.7%

Question: What about the “% Open Arm Entries (EPM), Mean” value (Long-Evans Hooded rats [1]; 1 mg/kg) of the same compound?
Answer: 7.49%

Question: What about the “% Open Arm Time (EPM), % Change” value (Long-Evans Hooded rats [1]; 1 mg/kg) of the same compound?
Answer: 69.4%

Question: What about the “% Open Arm Time (EPM), Mean” value (Long-Evans Hooded rats [1]; 1 mg/kg) of the same compound?
Answer: 9.76%

Question: And the “% Open Arm Entries (EPM), % Change” value (Long-Evans Hooded rats [1]; 3 mg/kg)?
Answer: 44.5%

Question: And the “% Open Arm Entries (EPM), Mean” value (Long-Evans Hooded rats [1]; 3 mg/kg)?
Answer: 7.92%

Question: And the “% Open Arm Time (EPM), % Change” value (Long-Evans Hooded rats [1]; 3 mg/kg)?
Answer: 75.3%

Question: What about the “% Open Arm Time (EPM), Mean” value (Long-Evans Hooded rats [1]; 3 mg/kg) of the same compound?
Answer: 10.1%

Question: What about the “percent open arm entries, increase as compared to vehicle” value (Long-Evans Hooded rats [1]; 3 mg/kg) of the same compound?
Answer: 205%

Question: What about the “% Open Arm Entries (EPM), % Change” value (Long-Evans Hooded rats [1]; 10 mg/kg) of the same compound?
Answer: 36.7%

Question: What about the “% Open Arm Entries (EPM), Mean” value (Long-Evans Hooded rats [1]; 10 mg/kg) of the same compound?
Answer: 7.49%

Question: What about the “% Open Arm Time (EPM), % Change” value (Long-Evans Hooded rats [1]; 10 mg/kg) of the same compound?
Answer: 30.9%

Question: And the “% Open Arm Time (EPM), Mean” value (Long-Evans Hooded rats [1]; 10 mg/kg)?
Answer: 7.54%

Question: What about the “percent open arm entries, increase as compared to vehicle” value (Long-Evans Hooded rats [1]; 10 mg/kg) of the same compound?
Answer: 237%

Question: What about the “Horizontal Activity (SMA), % Change” value (Long-Evans Hooded rats [2]; 0.3 mg/kg) of the same compound?
Answer: 5.3%

Question: And the “Horizontal Activity (SMA), Mean” value (Long-Evans Hooded rats [2]; 0.3 mg/kg)?
Answer: 3033

Question: And the “Vertical Movement (SMA), % Change” value (Long-Evans Hooded rats [2]; 0.3 mg/kg)?
Answer: 11.2%

Question: And the “Vertical Movement (SMA), Mean” value (Long-Evans Hooded rats [2]; 0.3 mg/kg)?
Answer: 54.6

Question: What about the “Horizontal Activity (SMA), % Change” value (Long-Evans Hooded rats [2]; 1 mg/kg) of the same compound?
Answer: −4.5%

Question: What about the “Horizontal Activity (SMA), Mean” value (Long-Evans Hooded rats [2]; 1 mg/kg) of the same compound?
Answer: 2752

Question: What about the “Vertical Movement (SMA), % Change” value (Long-Evans Hooded rats [2]; 1 mg/kg) of the same compound?
Answer: 2.4%

Question: And the “Vertical Movement (SMA), Mean” value (Long-Evans Hooded rats [2]; 1 mg/kg)?
Answer: 50.3

Question: And the “reduction in number of vertical movements (rearing behavior)” value (“reduction in number” for short) (Long-Evans Hooded rats [2]; 1 mg/kg)?
Answer: 17.8%

Question: What about the “Horizontal Activity (SMA), % Change” value (Long-Evans Hooded rats [2]; 3 mg/kg) of the same compound?
Answer: 14.5%

Question: And the “Horizontal Activity (SMA), Mean” value (Long-Evans Hooded rats [2]; 3 mg/kg)?
Answer: 3300

Question: And the “Vertical Movement (SMA), % Change” value (Long-Evans Hooded rats [2]; 3 mg/kg)?
Answer: 15.7%

Question: What about the “Vertical Movement (SMA), Mean” value (Long-Evans Hooded rats [2]; 3 mg/kg) of the same compound?
Answer: 56.8

Question: And the “reduction in horizontal activity” value (Long-Evans Hooded rats [2]; 3 mg/kg)?
Answer: 55%

Question: And the “reduction in number” value (Long-Evans Hooded rats [2]; 3 mg/kg)?
Answer: 73.4%

Question: And the “Horizontal Activity (SMA), % Change” value (Long-Evans Hooded rats [2]; 10 mg/kg)?
Answer: −10.2%

Question: And the “Horizontal Activity (SMA), Mean” value (Long-Evans Hooded rats [2]; 10 mg/kg)?
Answer: 2588

Question: And the “Vertical Movement (SMA), % Change” value (Long-Evans Hooded rats [2]; 10 mg/kg)?
Answer: −10.1%

Question: And the “Vertical Movement (SMA), Mean” value (Long-Evans Hooded rats [2]; 10 mg/kg)?
Answer: 44.2

Question: What about the “reduction in horizontal activity” value (Long-Evans Hooded rats [2]; 10 mg/kg) of the same compound?
Answer: 83.7%

Question: What about the “reduction in number” value (Long-Evans Hooded rats [2]; 10 mg/kg) of the same compound?
Answer: 93.9%

Question: And the IC50 (mu opioid receptor)?
Answer: 280 nM

Question: And the IC50 (delta opioid receptor)?
Answer: 280 nM

Question: With `CCN(C)C[C@H](O)CN1CN(c2ccc(F)cc2)C2(CCN(Cc3cccc4cccc(C)c34)CC2)C1=O` [Compound #440, 3-[3-(Ethyl-methyl-amino)-2-hydroxy-(S)-propyl]-1-(4-fluoro-phenyl)-8-(8-methyl-naphthalen-1-ylmethyl)-1,3,8-triaza-spiro[4.5]decan-4-one] as the compound, how does the IC50 (kappa opioid receptor) read?
Answer: > 10000 nM

Question: What about the IC50 (D2 receptor; [3]) of the same compound?
Answer: 1520 nM

Question: What about the IC50 (mu opioid receptor) of the same compound?
Answer: > 10000 nM

Question: For `CCN(C)C[C@H](O)CN1CN(c2ccc(F)cc2)C2(CCN([C@H]3Cc4cccc5cccc3c45)CC2)C1=O` [compound 433], which IC50 (D2 receptor) is on record?
Answer: 3520 nM
